Where two headings read alike, the source gives them in different places.
Assays:
[1] = Pharmacokinetic study in rat plasma after oral administration of QJYQ (UHPLC-sMRM); assay type: in vivo, Sprague-Dawley rats
Experimental: Exion LC AD tandem Blueline 3500 triple quadrupole mass spectrometer (AB SCIEX, Framingham, MA, United States) was used to thirty-three compounds in rat plasma. […] The whole detailed parameters of sMRM were obtained in Supplementary Table S1.
Rat plasma (100 μL) was mixed with 10% formic acid (10 μL) and vortexed for 1 min at room temperature. ISs (10 μL) and methanol/acetonitrile (1/1, v/v) (400 μL) were added and vortexed for 5 min, then centrifuged for 10 min at 14,000 rpm and 4°C. The transported supernatant was condensed to dryness under the flow of nitrogen gas. The dried residue was reconstituted with 70% methanol (100 μL) by vortex-mixing for 5 min and centrifuging at 14,000 rpm for 10 min. Last, 2 μL of the solution were injected into the UHPLC-sMRM system.
The pharmacokinetic study was approved by the Animal Ethics Committee of Tianjin University of Traditional Chinese Medicine (TCM-LAEC2021228). Ten male Sprague-Dawley rats (weight 220–240 g) was kept at the animal center of Tianjin University of Traditional Chinese Medicine (Tianjin, China). […] The sample was transferred right away following a 10 min period of centrifugation at 7000 rpm and 4°C. All plasma samples were frozen and stored at −80°C.
All the pharmacokinetic parameters were calculated using the DAS 1.0 software (Drug and Statistics 1.0, Medical College of Wannan, China). Pharmacokinetic parameters include the maximum drug concentration in plasma (Cmax), the time to achieve maximum drug concentration (Tmax), the area under the plasma concentration-time curve (AUC), elimination half-life (T1/2), and mean residence time (MRT). The pharmacokinetic parameters were computed using the non-compartmental model. All data are expressed as mean ± standard deviation (SD). GraphPad Prism 8.0 (GraphPad Software Inc., La Jolla, CA, United States) software was used to draw the drug-time curve.

[2] = Stability of analytes in rat plasma (auto-sampler, freeze-thaw, room temperature, long-term); details: for Autosampler for 24 h Accuracy (%): autosampler 24 h; for Room temperature for 24 h Accuracy (%): room temperature 24 h; for −80°C for 1month Accuracy (%): −80°C 1 month; for Freeze thaw cycles Accuracy (%): three freeze-thaw cycles
[3] = parameters: method as in Wang et al., 2008; Feng et al., 2017; details: alkaline and light and heat conditions; ref Wang et al., 2008; Feng et al., 2017; cited from earlier work
[4] = Stability of the working solution (4°C for 1 month); assay type: physicochemical
[5] = male, Sprague-Dawley, rat, in vivo, po, 3.15 g/kg

For `O=C(O)[C@H]1O[C@@H](Oc2cc3oc(-c4ccccc4)cc(=O)c3c(O)c2O)[C@H](O)[C@@H](O)[C@@H]1O` [baicalin], the Tmax ([1]; male, Sprague-Dawley, rat, plasma, po, 3.15 g/kg, rat plasma, oral QJYQ 3.15 g/kg, n = 8, mean ± SD, read-out: Tmax) was 7.22 ± 1.41 h, the MRT ([1]; male, Sprague-Dawley, rat plasma, oral QJYQ 3.15 g/kg, MRT type not specified, read-out: MRT) was > 8 h and the half-life ([1]; male, Sprague-Dawley, rat plasma, oral QJYQ 3.15 g/kg, n = 8, mean ± SD) was 3.09 ± 0.87 h. The AUC(0-t) ([1]; male, Sprague-Dawley, rat plasma, oral QJYQ 3.15 g/kg, n = 8, mean ± SD, read-out: AUC(0-t)) was 49300 ± 24900 ng·h/mL, the AUC(0-inf) ([1]; male, Sprague-Dawley, rat plasma, oral QJYQ 3.15 g/kg, n = 8, mean ± SD, read-out: AUC(0-∞)) was 49700 ± 24900 ng·h/mL and the Cmax ([1]; male, Sprague-Dawley, rat plasma, oral QJYQ 3.15 g/kg, n = 8, mean ± SD, read-out: Cmax) was 4520 ± 3140 ng/mL. For the same molecule, the MRT inf ([1]; male, Sprague-Dawley, rat plasma, oral QJYQ 3.15 g/kg, n = 8, mean ± SD, read-out: MRT (0-∞)) was 8.62 ± 0.53 h, the MRT last ([1]; male, Sprague-Dawley, rat plasma, oral QJYQ 3.15 g/kg, n = 8, mean ± SD, read-out: MRT(0-t)) was 8.45 ± 0.58 h and the “Autosampler for 24 h Accuracy (%)” value ([2]; 15.6 ng/mL) was 111.0%. For the same molecule, the “Room temperature for 24 h Accuracy (%)” value ([2]; 15.6 ng/mL) was 98.5%, the “−80°C for 1month Accuracy (%)” value ([2]; 15.6 ng/mL) was 98.9% and the “Autosampler for 24 h Accuracy (%)” value ([2]; 125 ng/mL) was 113.0%. For the same molecule, the “Room temperature for 24 h Accuracy (%)” value ([2]; 125 ng/mL) was 104.0%, the “Freeze thaw cycles Accuracy (%)” value ([2]; 125 ng/mL) was 89.3% and the “−80°C for 1month Accuracy (%)” value ([2]; 125 ng/mL) was 98.1%. For the same molecule, the “Autosampler for 24 h Accuracy (%)” value ([2]; 1000 ng/mL) was 94.2%, the “Room temperature for 24 h Accuracy (%)” value ([2]; 1000 ng/mL) was 96.8% and the “Freeze thaw cycles Accuracy (%)” value ([2]; 1000 ng/mL) was 89.7%. The “−80°C for 1month Accuracy (%)” value ([2]; 1000 ng/mL) was 91.4%, the “Autosampler for 24 h Accuracy (%)” value ([2]; 5000 ng/mL) was 86.8% and the “Room temperature for 24 h Accuracy (%)” value ([2]; 5000 ng/mL) was 89.0%. The “Freeze thaw cycles Accuracy (%)” value ([2]; 5000 ng/mL) was 111.0%, the “−80°C for 1month Accuracy (%)” value ([2]; 5000 ng/mL) was 90.3% and the stability [3] was “not stable”. The “Working solution Accuracy (%)” value ([4]; 15.6 ng/mL) was 83.1%, the “Working solution Accuracy (%)” value ([4]; 125 ng/mL) was 105.0% and the “Working solution Accuracy (%)” value ([4]; 1000 ng/mL) was 93.9%. For the same molecule, the “Working solution Accuracy (%)” value ([4]; 5000 ng/mL) was 87.7%.
Molecule `O=C1C[C@@H](c2ccc(O[C@@H]3O[C@H](CO)[C@@H](O)[C@H](O)[C@H]3O)cc2)Oc2cc(O)ccc21` [liquiritin] has an AUC(0-inf) [1, 5] of 16.4 ± 5.06 ng·h/mL, an AUC(0-t) [1, 5] of 16.3 ± 5.11 ng·h/mL and a Cmax [1, 5] of 7.08 ± 2.25 ng/mL. The MRT inf [1, 5] was 6.8 ± 1.19 h, the MRT last [1, 5] was 6.4 ± 0.98 h and the Tmax ([1]; male, Sprague-Dawley, rat, in vivo, po, 3.15 g/kg, Tmax) was 0.52 ± 0.1 h. For the same molecule, the T1/2 ([1]; rat plasma, oral QJYQ 3.15 g/kg, n = 8, mean ± SD) was 4.30 ± 3.09 h, the “Autosampler for 24 h Accuracy (%)” value ([2]; 1.56 ng/mL) was 84.0% and the “Room temperature for 24 h Accuracy (%)” value ([2]; 1.56 ng/mL) was 111.0%. For the same molecule, the “Freeze thaw cycles Accuracy (%)” value ([2]; 1.56 ng/mL) was 110.0%, the “Autosampler for 24 h Accuracy (%)” value ([2]; 12.5 ng/mL) was 108.0% and the “Room temperature for 24 h Accuracy (%)” value ([2]; 12.5 ng/mL) was 94.4%. The “−80°C for 1month Accuracy (%)” value ([2]; 12.5 ng/mL) was 94.1%, the “Autosampler for 24 h Accuracy (%)” value ([2]; 100 ng/mL) was 94.1% and the “Room temperature for 24 h Accuracy (%)” value ([2]; 100 ng/mL) was 90.6%. The “Freeze thaw cycles Accuracy (%)” value ([2]; 100 ng/mL) was 85.8%, the “−80°C for 1month Accuracy (%)” value ([2]; 100 ng/mL) was 103.0% and the “Autosampler for 24 h Accuracy (%)” value ([2]; 500 ng/mL) was 91.2%. For the same molecule, the “Room temperature for 24 h Accuracy (%)” value ([2]; 500 ng/mL) was 89.3%, the “Freeze thaw cycles Accuracy (%)” value ([2]; 500 ng/mL) was 87.0% and the “−80°C for 1month Accuracy (%)” value ([2]; 500 ng/mL) was 108.0%. For the same molecule, the “Working solution Accuracy (%)” value ([4]; 1.56 ng/mL) was 99.4%, the “Working solution Accuracy (%)” value ([4]; 12.5 ng/mL) was 94.1% and the “Working solution Accuracy (%)” value ([4]; 100 ng/mL) was 100.0%. For the same molecule, the “Working solution Accuracy (%)” value ([4]; 500 ng/mL) was 86.6%.

Reference: PMC10133546, “Simultaneous determination of multiple components in rat plasma by UHPLC-sMRM for pharmacokinetic studies after oral administration of Qingjin Yiqi Granules” (Frontiers in Pharmacology, 2023)
